Reference: patent US4994459A, “Aryloxypropane substituted piperazine derivatives with antiarrhythmic and antifibrillatory activity” (American Home Products Corporation, priority 1989, dated 1991)

Assays:
[1] = test system: Anesthetized Dog; assay: Cardiac electrophysiology in anesthetized dogs (refractory periods, conduction times, heart rate, blood pressure); format: in vivo; design: ACT (atrial conduction time), change / VCT (ventricular conduction time), change / BP, change: unit not given here; conditions: 5 mg/kg i.v.; for ACT (atrial conduction time), change / AERP (refractory period of the right atrium), change / VCT (ventricular conduction time), change / VERP (refractory period of the right ventricle), change: BCL = 300, Example 1 n = 3; for BP, change / HR, change: Example 1 n = 3
Procedure: The compounds of this invention display a Class III antiarrhythmic profile. The Class III antiarrhythmic activity was established in vitro and in vivo in accordance with the following standard test procedures. Mongrel dogs of both sexes weighing 12 to 18 kg were anesthetized with sodium pentobarbital (35 mg/kg i.v. supplemented with 5 mg/kg/h) and artificially ventilated with room air (minute volume: 200 mL/kg). The heart was exposed by a right thoractomy performed at the fifth intercostal space and suspended in a pericardial cradle. Epicardial electrodes for stimulation and recording were sutured to the free wall of the lower right atrium and near the base of the right ventricle. Each electrode set contained a linear array of electrodes consisting of 1 bipolar stimulating electrode and 2 bipolar recording electrodes embedded in a rigid acrylic matrix. The stimulating bipole was 7 mm from the proximal recording electrode, which in turn was 10 mm from the distal recording bipole. Each electrode array was oriented to be parallel to the epicardial fiber axis. […] Conduction times and refractory periods were measured during pacing at a cycle length of 300 msec. The dog heart was paced by a stimulator driving a constant current isolation unit. […] Diastolic threshold was determined before and after each trial. Refractory periods of the right atrium and right ventricle ([…]) were determined by introducing an extrastimulus (S2) every 8 paced beats (S1). The extrastimulus was followed by a 4-second rest interval during which no pacing occurred. Both S1 and S2 were of identical intensity (twice threshold) and duration (2 msec). […] This S1 -S2 interval was considered to define effective refractory period. Atrial and ventricular (ACT and VCT) conduction times were measured as the time interval between the 2 electrograms recorded at the proximal and distal sites of the recording electrode array. The time of activation for electrograms with predominantly biphasic complexes was taken as the moment when the trace crossed the zero reference line, and for triphasic complexes, as the peak of the major deflection. Animals received the test compound by i.v. injection. Drugs were administered cumulatively at the following dose levels: 1, 2.5, 5, 7.5, 10 mg/kg. Each dose was administered over a 3 minute period. Electrophysiologic testing was performed 15 minutes following the end of dosing. Every 30 minutes the dog received the next incremental dose. […] An increase in ERP that occurred without a significant decrease of CT was taken, by definition to indicate "in vivo" Class III antiarrhythmic activity.

[2] = test system: Pigs (Durrock-Landrace cross); assay: Coronary occlusion-reperfusion in anesthetized pigs (20 min LAD occlusion, then reperfusion; survival); format: in vivo, pig; conditions: 20 minutes before LAD occlusion
Procedure: Pigs (Durrock-Landrace cross) of either sex weighing 12 to 24 kg were anesthetized by administration of sodium pentobarbital. (35 mg/kg i.p. and supplemented with 5 mg/kg/hr. i.v.) and ventilated with room air following tracheotomy (minute volume: 200 mL/kg). The left femoral artery and vein were cannulated for the recording of blood pressure and for drug administration, respectively. Blood pressure and lead II EKG were recorded on a chart recorder.
The heart was exposed by a left thoracotomy performed at the fifth intercostal space. A silk ligature was placed beneath the left anterior descending coronary artery (LAD) about 1.5 cm from its origin and distal to the septal artery branch. The artery was occluded by lifting the vessel with the ligature and quickly placing a bull-dog clamp (3×12 mm padded jaws) over the artery. The clamp remained in place for a period of 20 minutes. Removal of the clamp produced a rapid reperfusion of the ischemic myocardium as evidenced by the return of normal color to the myocardium distal to the site of occlusion. Ectopic activity was monitored during occlusion and reperfusion by recording the lead II EKG at chart speeds of 5 to 25 mm/second. Animals were allowed to stabilize for at least 30 minutes prior to drug administration.
Pigs were randomized into groups receiving either vehicle or test drug at a given dose (1-5 mg/kg i.v.) 20 minutes before LAD occlusion. Animals surviving the period of occlusion were subsequently reperfused. No attempt was made to resuscitate animals experiencing ventricular fibrillation (VF) at any time following occlusion. In the absence of treatment, less than 30 percent of the animals survive the 20 minute period of occlusion, with a mean time to death onset of 8 to 12 minutes. Effective compounds either prevent death due to VF or prolong survival time.

[3] = test system: Purkinje fiber; assay: Cardiac electrophysiology in vitro, dog Purkinje fibers (action potential parameters); format: cell-based; design: unit not given here; conditions: 3 μM
Procedure: The compounds of this invention display a Class III antiarrhythmic profile. The Class III antiarrhythmic activity was established in vitro and in vivo in accordance with the following standard test procedures. Bundles of free-running Purkinje fibers with attached myocardium obtained from either ventricle of adult dog heart were pinned without stretching to the bottom of a 10 mL tissue chamber and continuously superfused with oxygenated Tyrode's solution at a flow rate of 5 mL/min. The composition of the Tyrode's solution was (mM): NaCl, 138; KCl 4; CaCl2, 2; MgCl2 0.5; NaHCO3, 24; dextrose, 5.5. The solution was aerated with 95% O2 -5% CO2 at 37° C. Bath temperature was maintained at 37±0.5° C. by circulating the pre-warmed superfusate through a thermostatically controlled water bath immediately prior to entering the tissue chamber. The preparations were stimulated through bipolar Teflon-coated silver wires, bared at the tips, placed on the endocardial surface of the attached myocardium, using a digital stimulator set to deliver constant current pulses 1.5-msec in duration at cycle lengths of 300 or 1000 msec. Stimulus strength was set at approximately 2×diastolic threshold, and adjusted as required throughout the experiment. All preparations were allowed to equilibrate in the tissue chamber for at least 1 hour before measurements were begun. Subsequently, a minimum of 60 minutes were allowed for equilibration with each drug-containing superfusate before post-drug measurements were made. Impalements were made at 6 to 10 sites throughout the preparation before and after drug exposure. Offset potentials were rechecked after each impalement. Glass microelectrodes filled with 3M KCl were coupled to high impedance negative capacitance electrometers and Ag/AgCl half-cells used as reference electrodes. The first derivative of the action potential upstroke (Vmax) was obtained using an analog differentiator circuit, coupled to a peak-hold circuit that retained the recorded value of Vmax for 30 to 70-msec. […] In addition, chart paper recordings of Vmax were obtained using the peak-hold device output. Fresh stock solutions of drug were prepared for each experiment. […] Action potential (AP) parameters measured included: diastolic take-off potential or activation voltage, (Vact); AP overshoot (Vos); AP duration measured as the time taken to repolarize to -20 mV (APD-20),-60 mV (APD-60), and -80 mV (APD-80); and maximal upstroke velocity (Vmax). An increase in APD-60 that occurred without a significant change in Vmax was taken, by definition, to indicate Class III antiarrhythmic activity "in vitro".

[4] = dextro enantiomer; Taggart et al. 1985, McComb et al. 1985; cited from earlier work

Compound	ACT (atrial conduction time), change [1]	AERP (refractory period of the right atrium), change [1]	VCT (ventricular conduction time), change [1]	VERP (refractory period of the right ventricle), change [1]	BP, change [1]	HR, change [1]	Fraction of pigs surviving 20 min. occlusion ([2]; 2.5 mg/Kg i.v.)	Fraction of pigs surviving reperfusion ([2]; 2.5 mg/Kg i.v.)	Fraction of pigs surviving 20 min. occlusion ([2]; 5 mg/Kg i.v.)	Fraction of pigs surviving reperfusion ([2]; 5 mg/Kg i.v.)	APD-60 (AP duration, time to repolarize to -60 mV), change ([3]; BCL = 300, Example 1 n = 2)	Vmax (maximal upstroke velocity), change ([3]; BCL = 300, Example 1 n = 2)	APD-60 (AP duration, time to repolarize to -60 mV), change ([3]; BCL = 1000, Example 1 n = 3)	Vmax (maximal upstroke velocity), change ([3]; BCL = 1000, Example 1 n = 3)	selective Class III antiarrhythmic activity [4]
Cl.Cl.O=[N+]([O-])c1ccc(OCC(O)CN2CCN(c3ccccn3)CC2)cc1 (racemic) [Example 1, α-[(4-Nitrophenoxy)methyl]-4-(2-pyridinyl)-1-piperazineethanol Dihydrochloride]	16 ± 1	69 ± 7	-7 ± 9	25 ± 3	-33 ± 9	-33 ± 1	1/4	0/4	4/4	2/4	15	-19	29 ± 6	-8 ± 5	–
CS(=O)(=O)Nc1ccc(OCC(O)CN2CCN(c3ccccn3)CC2)cc1 (centres unmarked) [Example 5, N-[4-[2-Hydroxy-3-[4-(2-pyridinyl)-1-piperazinyl]propoxy]phenyl]methanesulfonamide]	6	56	3	13	-25	-15	–	–	–	–	30	7	50	14	–
CS(=O)(=O)Nc1ccc(OCC(O)CN2CCN(c3ncccn3)CC2)cc1 (centres unmarked) [Example 4, N-[4-[2-Hydroxy-3-[4-(2-pyrimidinyl)-1-piperazinyl]-propoxy]phenyl]methanesulfonamide]	-4	24	0	13	-16	-14	–	–	–	–	16	-12	33	-17	–
CC(C)NCC(O)c1ccc(NS(C)(=O)=O)cc1 (centres unmarked) [Sotalol, 4-(2-isopropylamino-1-hydroxyethyl)-methane-sulfonamide]	–	–	–	–	–	–	–	–	–	–	–	–	–	–	selective Class III antiarrhythmic activity
